One assay deals with hFKBP12 (Homo sapiens, UniProt P62942). Description: Protease-coupled PPIase assay, FKBP12. Conditions: Example 3; read-out: IC50 value, inhibition of PPlase activity of FKBP12. In kind it is biochemical. The procedure:
The PPlase activity of hFKBP12 and hCypA was determined by using the protease-coupled PPlase assay as described by Fischer, H. Bang, B. Ludwig, K. Mann, J. Hacker, Mol. Microbiol. 1992, 6, 1375-1383. […] Then reaction was started by addition of 100 µg/mL of the isomer specific protease chymotrypsin, and the release of 4-nitroaniline was monitored by measuring the absorbance at 390 nm. […] Since tested PPlases vary in there catalytic efficiencies, different substrates has to be used to ensure equal rate constants of catalyzed cis/trans isomerization (Table 1). […] Table 1. Substrates for the respective PPlases

Another assay deals with hCypA (Homo sapiens, UniProt P62937). The assay is described as follows: Protease-coupled PPIase assay, CypA. In kind it is biochemical. The procedure: The PPlase activity of hFKBP12 and hCypA was determined by using the protease-coupled PPlase assay as described by Fischer, H. Bang, B. Ludwig, K. Mann, J. Hacker, Mol. Microbiol. 1992, 6, 1375-1383. To study the effect of compounds 7-10 on PPlase activity, 100 nM of each hFKBP and 5 nM of each hCyp, respectively and 40 µM peptide substrate were preincubated in the presence or absence of various inhibitor concentrations for 6 min at 10 °C in 35mM HEPES/NaCl buffer (pH 7.5). Then reaction was started by addition of 100 µg/mL of the isomer specific protease chymotrypsin, and the release of 4-nitroaniline was monitored by measuring the absorbance at 390 nm. To achieve better comparability of compounds 7-10 effects on PPlase activity, the concentrations of FKBP and Cyp were kept constant at 100 nM and 5 nM, respectively. Since tested PPlases vary in there catalytic efficiencies, different substrates has to be used to ensure equal rate constants of catalyzed cis/trans isomerization (Table 1). […] Table 1. Substrates for the respective PPlases

Experimental findings from patent publication EP2705856A1, “Compounds for the treatment of neurodegenerative disorders” (Deutsches Zentrum für Neurodegenerative Erkrankungen e.V., priority 2012, dated 2014) are described below.

Read-outs that look alike come from different tables or passages of the source.

hCypA, sequence (P62937 whole entry): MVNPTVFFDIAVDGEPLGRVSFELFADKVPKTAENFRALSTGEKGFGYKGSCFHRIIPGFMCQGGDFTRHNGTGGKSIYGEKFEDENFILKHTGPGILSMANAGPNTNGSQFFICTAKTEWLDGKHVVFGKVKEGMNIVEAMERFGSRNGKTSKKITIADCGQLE
hFKBP12, sequence (P62942 whole entry): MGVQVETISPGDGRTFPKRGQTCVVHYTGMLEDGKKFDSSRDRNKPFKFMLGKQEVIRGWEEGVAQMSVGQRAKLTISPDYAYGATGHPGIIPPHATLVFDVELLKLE

Regarding `C[C@@H]1C[C@@H]([C@H](O)CC2CC(=O)N(CC(=O)N(C)C)C(=O)C2)C(=O)[C@@H](C)C1` [DM-CHX, N-(N,N-Dimethylcarboxamidomethyl)cycloheximid], the IC50 at hFKBP12 is 36.9 ± 17.1 nM.
Take `C/C=C/C[C@@H](C)[C@@H](O)[C@H]1C(=O)N[C@@H](CC)C(=O)N(C)CC(=O)N(C)[C@@H](CC(C)C)C(=O)N[C@@H](C(C)C)C(=O)N(C)[C@@H](CC(C)C)C(=O)N[C@@H](C)C(=O)N[C@H](CO)C(=O)N(C)[C@@H](CC(C)C)C(=O)N(C)[C@@H](CC(C)C)C(=O)N(C)[C@@H](C(C)C)C(=O)N1C` [[D-Ser^8]-CsA]: the IC50 on hCypA (read-out: /C50-values, inhibition of PPlase activity of hCypA, Example 1, Figure 1: hCypA 5 nM, substrate suc-Ala-Ala-Pro-Phe-pNA) was 8.3 ± 1.4 nM; at hCypA (read-out: IC50 value, inhibition of CypA, Example 3), 1.5 ± 0.4 nM.
